Measurements as given in patent US20190359653A1, “SELECTIVE PEPTIDE INHIBITORS OF FRIZZLED” (Genentech, Inc., priority 2016, published 2019).

System: Herceptin
Test: spot phage ELISA against Herceptin (off-target)
Format: binding
Conditions: for SIGNAL: NOISE RATIO HERCEPTIN: spot phage ELISA signal against Herceptin over ELISA signal against BSA, Tables 3 and 4; for HERCEPTIN S/W: signal minus noise (BSA); for HERCEPTIN S/W / HERCEPTIN S/N: Table 5; for HERCEPTIN S/N: signal to noise ratio
Procedure: Phage pools of linear peptide libraries (Stanger, K. et al. Allosteric peptides bind a caspase zymogen and mediate caspase tetramerization. Nat Chem Biol 8, 655-660 (2012)) were cycled through rounds of binding selections with hFZD7 CRD-Fc following standard protocols (Tonikian et al. (2007) Nat Protoc 2, 1368-1386). Herceptin (10 μM) was included in sorting solution to block potential Fc binders during all rounds of sorting. After four rounds of binding selection, individual phage clones were analyzed in a high-throughput spot phage ELISA using plate-immobilized FZD7 CRD-Fc as target or off-target for specificity test (hFZD8 CRD-Fc and Herceptin). To measure off-target affinity, duplicate phage particle were assayed against BSA to measure non-specific binding. Clones with a phage-binding signal >0.5 and signal-to-noise ratio >10 were considered to be positive clones and were subjected to DNA sequence analysis. General data handling was done using Microsoft Excel 2010 unless otherwise noted.
In order to investigate the role of FZD7 in intestinal stem cell function, experiments were performed to identify ligands that selectively bind FZD7 CRD. A naïve linear peptide library (4-16 amino acids in length) and a cyclic peptide library were screened via phage display against FZD7 CRD-Fc. Peptides found to bind FZD7 CRD-Fc were then screened via spot phage ELISA against FZD7 CRD-Fc, FZD8 CRD-Fc, and Herceptin to identify candidates that bind FZD7 CRD but not FZD8 CRD or herceptin. The amino acid sequences of candidate FZD7 CRD-binding linear peptides are shown in Table 3 below, and the amino acid sequences of candidate FZD7 CRD-binding cyclic peptides are shown in Table 4.
Briefly, sixty Fz7-21-derived peptides (see Table 5), each containing at least one random alanine and/or valine/and/or aspartic acid and/or serine substitution, were generated and screened via spot phage ELISA (i.e., as described above) against FZD7 CRD-Fc and Herceptin.

Substance | SIGNAL: NOISE RATIO HERCEPTIN | HERCEPTIN S/W | HERCEPTIN S/N
9 (ACSYVIDLWNLCLR) [compound 9] | 1.3 |  | 
62 (VASDDLASWCHAMY) [compound 62] |  | 0.0 | 1.3
76 (VPSDDLEAWCDVMY) [compound 76] |  | 0.0 | 1.3
27 (NPPPECFLSK) [compound 27] | 1.2 |  | 
93 (AAADDLAFWCDVMY) [compound 93] |  | -0.2 | 0.4
25 (EHDLLLRAMNSFVLIF) [compound 25] | 1.4 |  | 
7 (FWMLLQEGFAFWFP) [compound 7] | 1.3 |  | 
88 (VAADDLAFWCDVMY) [compound 88] |  | 0.0 | 1.2
6 (DTDLHQWCLWFT) [compound 6] | 1.1 |  | 
56 (APSDDLAAWCHVVY) [compound 56] |  | 0.0 | 1.2
22 (VFVPFSELTSLC) [compound 22] | 1.1 |  | 
84 (LPADDLAAWCHVMY) [compound 84] |  | 0.0 | 1.4
48 (AAADDLEFWCHVMY) [compound 48] |  | 0.0 | 1.2
43 (APADDVEFWCHVMY) [compound 43] |  | 0.0 | 1.8
2 (TYFDDICNLILPWANP) [compound 2] | 1.2 |  | 
96 (APADDLESWCHVMY) [compound 96] |  | 0.1 | 2.1
59 (AAADDLEAWCAVMY) [compound 59] |  | 0.0 | 1.2
8 (FELLLDLGDLIRLW) [compound 8] | 1.8 |  | 
17 (GDFWPGSLLWEILV) [compound 17] | 1.2 |  | 
65 (VPSDDLAFWCHVMY) [compound 65] |  | 0.0 | 1.3
63 (VPADDLASWCHVMY) [compound 63] |  | 0.0 | 1.2
53 (LPSDDLESWCHVMY) [compound 53] |  | 0.0 | 1.2
29 (ERRVCYPWFEVSQP) [compound 29] | 1.3 |  | 
92 (LPADDLAFWCDVMY) [compound 92] |  | 0.0 | 0.7

Substance | SIGNAL: NOISE RATIO HERCEPTIN | HERCEPTIN S/W | HERCEPTIN S/N
37 (FDFCSVMPHFIYCPGD) [compound 37] | 1.10 |  | 
79 (LPSADLESWCHVMY) [compound 79] |  | 0.0 | 1.4
64 (APADDLEFWCHVVY) [compound 64] |  | 0.0 | 1.4
57 (AAADDLAAWCDVMY) [compound 57] |  | 0.0 | 1.4
24 (NAFWRDQCLEWFIICL) [compound 24] | 1.2 |  | 
72 (APADDLEFWCHVMY) [compound 72] |  | 0.0 | 1.2
12 (PPNVHEGCWSMFPW) [compound 12] | 1.1 |  | 
26 (FCENPYIICW) [compound 26] | 1.1 |  | 
50 (AASDDLESWCHVMY) [compound 50] |  | 0.0 | 1.2
70 (AASDDLEAWCHVMY) [compound 70] |  | 0.0 | 1.4
78 (VPADDLASWCDVMY) [compound 78] |  | 0.1 | 1.9
34 (HLSDVCCSDWCDLVFW) [compound 34] | 0.99 |  | 
52 (LPADDLAVWCDVMY) [compound 52] |  | 0.0 | 1.5
35 (TSDFSWCLSWCDLIFW) [compound 35] | 1.19 |  | 
3 (PQDLLDWCHYMIVSSD) [compound 3] | 1.2 |  | 
69 (VPSADLESWCHVMY) [compound 69] |  | 0.0 | 1.6
80 (AAADDLAFWCHVMY) [compound 80] |  | 0.0 | 1.4
55 (VAADALEFWCHVMY) [compound 55] |  | 0.0 | 1.3
77 (AASDDLAFWCHVMY) [compound 77] |  | 0.0 | 1.1
98 (AAADDLAAWCHVVY) [compound 98] |  | 0.1 | 2.2
58 (VASDDLEFWCHVMY) [compound 58] |  | 0.0 | 1.3
47 (VASDDLEAWCHVMY) [compound 47] |  | 0.0 | 1.4
36 (FDFCTVMPHFIYCPGD) [compound 36] | 1.13 |  | 
83 (VPSADLETWCHVMY) [compound 83] |  | 0.0 | 1.4

Substance | SIGNAL: NOISE RATIO HERCEPTIN | HERCEPTIN S/W | HERCEPTIN S/N
45 (APADDLEAWCHVMY) [compound 45] |  | 0.0 | 1.2
90 (APADDLAFWCDVMY) [compound 90] |  | 0.0 | 0.9
74 (APADDLAFWCHVVY) [compound 74] |  | 0.0 | 1.3
67 (VPADDLAFWCHVMY) [compound 67] |  | 0.0 | 1.3
30 (LSSGKKVSSYWFNFWF) [compound 30] | 3.8 |  | 
97 (APSDDLAFWCHVVY) [compound 97] |  | 0.1 | 2.1
68 (VPSDDLASWCHVMY) [compound 68] |  | 0.0 | 1.4
44 (APSDDLEFWCHVMY) [compound 44] |  | 0.0 | 1.3
89 (APADDLEFWCHAMY) [compound 89] |  | 0.0 | 1.4
87 (AAADDVASWCHVMY) [compound 87] |  | 0.0 | 1.3
49 (AASDDLAAWCHVMY) [compound 49] |  | 0.0 | 1.8
95 (VPSDDLEFWCAVMY) [compound 95] |  | 0.0 | 1.2
82 (LPAADLAAWCHVMY) [compound 82] |  | 0.0 | 1.2
20 (FLPDQHSHLFLPWGEP) [compound 20] | 1.1 |  | 
38 (HLSDVFCSDWCDLVFW) [compound 38] | 1.14 |  | 
73 (APSDDLAAWCHVMY) [compound 73] |  | 0.0 | 1.3
60 (LAADDLESWCHVMY) [compound 60] |  | 0.0 | 1.2
75 (APSDDLEAWCDVMY) [compound 75] |  | 0.0 | 1.3
86 (VASDDLASWCHVVY) [compound 86] |  | 0.0 | 1.2
10 (ASELHDWCRMMFPW) [compound 10] | 1.2 |  | 
54 (AAADDLEVWCHVMY) [compound 54] |  | 0.0 | 1.4
91 (APSDDLAFWCDVMY) [compound 91] |  | 0.0 | 0.7
31 (FWFDFWFG) [compound 31] | 4.1 |  | 
